In patent publication US8012952B2, “Cationic 17 α-substituted-estradiol derivatives useful as anti-cancer agent” (Council of Scientific & Industrial Research, priority 2007, dated 2011):

Assays:
MCF-7 cells = assay: MTT cell viability assay, MCF-7 cells; settings: Homo sapiens, MCF7, read-out: in-vitro percent cell viability
Description: (§1) The in vitro cytotoxicities of the derivative A to various cancer and non-cancer cells across different molar concentrations (0.5 μM-50 μM) were performed. The cancer cells were chosen from various origins, such as breast cancer cells MCF-7 (primary carcinoma), T47D (ductal carcinoma), MDA-MB-468 (secondary, metastatic); cervical cancer cell Hela; lung cancer cell A549 (metastatic). […] In one set of experiments, the cells were treated at different concentrations of derivative A for 4 h, washed and kept in serum media for 6 days to observe cellular toxicity using MTT assay (FIGS. 1, 2, 4, 6A and 6B), except for one cell line where the assay was done after 4 days (FIG. 3). In another set of experiment, the cells were treated continuously for 48 h in presence of serum media and cellular toxicities were assayed promptly (FIG. 5).
(§2) Cells and Cell Culture. CHO (Chinese hamster ovary), COS-1 (African Green monkey kidney cells) HeLa (Human cervical carcinoma), MCF-7 (Human breast primary adenocarcinoma), T47D (Human breast ductal carcinoma), MDA-MB-468 (Human breast secondary adenocarcinoma), and A-549 (Human lung carcinoma) cell lines were procured from the National Centre for Cell Sciences (NCCS), Pune, India and were mycoplasma free. […] The cells were trypsinized, counted, subcultured in 96-well plates for viability studies. […]

Hela cells = assay: MTT cell viability assay, Hela cells; settings: Homo sapiens, read-out: in-vitro percent cell viability
Description: as §1, §2

MDA-MB-468 cells = assay: MTT cell viability assay, MDA-MB-468 cells; settings: Homo sapiens, MDA-MB-468, read-out: in-vitro percent cell viability
Description: as §1, §2

T47D cells = assay: MTT cell viability assay, T47D cells; settings: Homo sapiens, read-out: in-vitro percent cell viability
Description: as §1, §2

Measured: viability at 50 µM

CCCCCCCC[N+](C)(CCCCCCCC)CCC[C@]1(O)CCC2C3CCc4cc(O)ccc4C3CC[C@@]21C (stereo partly drawn) [Derivative 1, 17α-[3-N,N-dioctyl(methyl)aminopropane]-17β-Estradiol]
2 to 10%: all assays above
